Experimental data from ChEMBL document CHEMBL4229541, “Vinca alkaloids and analogues as anti-cancer agents: Looking back, peering ahead” (Bioorg Med Chem Lett, 2018).

Tests used:
Assay type in all cases: functional, cell-based
L1210 = experiment: Growth inhibition of mouse L1210 cells
HCT-116 = experiment: Growth inhibition of human HCT116 cells
HCT-116/VM46 = experiment: Growth inhibition of human HCT116/VM46 cells

| SMILES | IC50 (L1210) | IC50 (HCT-116) | IC50 (HCT-116/VM46) |
| --- | --- | --- | --- |
| CC[C@]1(N=[N+]=[N-])C[C@@H]2CN(CCc3c([nH]c4ccccc34)[C@@](C(=O)OC)(c3cc4c(cc3OC)N(C)[C@H]3[C@@](O)(C(=O)OC)[C@H](OC(C)=O)[C@]5(CC)C=CCN6CC[C@]43[C@@H]65)C2)C1 | 670 nM | 690 nM | 5.5 µM |
| CC[C@]1(O)C[C@@H]2CN(CCc3c([nH]c4ccccc34)[C@@](C(=O)OC)(c3cc4c(cc3OC)N(C)[C@H]3[C@]5(O)C(=O)N(C)CCC5[C@]5(CC)CCCN6CC[C@]43C65)C2)C1 (some centres undefined) | 8400 nM | 7900 nM | > 10 µM |
| CC[C@]1(O)C[C@@H]2CN(CCc3c([nH]c4ccccc34)[C@@](C(=O)OC)(c3cc4c(cc3OC)N(C)[C@@H]3[C@]45CCN4CC=C[C@@H](C[C@]3(O)C(=O)OC)[C@H]45)C2)C1 | 610 nM | 400 nM | 3.5 µM |
| CC[C@]1(O)C[C@@H]2CN(CCc3c([nH]c4ccccc34)[C@@](C(=O)OC)(c3cc4c(cc3OC)N(C)[C@H]3[C@@](O)(C(=O)OC)[C@H](OC(C)=O)[C@]5(CC)C[C@@H](O)CN6CC[C@]43[C@@H]65)C2)C1 | 7600 nM | 7700 nM | > 10 µM |
| CC[C@]1(O)C[C@@H]2CN(CCc3c([nH]c4ccccc34)[C@@](C(=O)OC)(c3cc4c(cc3OC)N(C)[C@H]3[C@@](O)(C(=O)OC)[C@H](OC(C)=O)[C@]5(CC)C[C@H](O)CN6CC[C@]43[C@@H]65)C2)C1 | 610 nM | 630 nM | > 10 µM |
| CC[C@]1(N)C[C@@H]2CN(CCc3c([nH]c4ccccc34)[C@@](C(=O)OC)(c3cc4c(cc3OC)N(C)[C@H]3[C@@](O)(C(=O)OC)[C@H](OC(C)=O)[C@]5(CC)C=CCN6CC[C@]43[C@@H]65)C2)C1 | 640 nM | 600 nM | > 10 µM |
| CC[C@]1(O)C[C@@H]2CN(CCc3c([nH]c4ccccc34)[C@@](C(=O)OC)(c3cc4c(cc3OC)N(C)[C@@H]3[C@]45CCN4CC=C[C@@](CC)(C[C@]3(O)C(=O)OC)[C@H]45)C2)C1 | 58000 nM | 60000 nM | 660 µM |
| CC[C@]1(O)C[C@@H]2CN(CCc3c([nH]c4ccccc34)[C@@](C(=O)OC)(c3cc4c(cc3OC)N(C)[C@H]3[C@@](O)(C(=O)OC)[C@H](OC(C)=O)[C@]5(CC)C[C@@H](Cl)CN6CC[C@]43[C@@H]65)C2)C1 | 840 nM | 710 nM | 8.6 µM |
| CC[C@]1(O)C[C@@H]2CN(CCc3c([nH]c4ccccc34)[C@@](C(=O)OC)(c3cc4c(cc3OC)N(C)[C@H]3[C@@](O)(C(=O)OC)[C@H](OC(C)=O)[C@]5(CC)C=CCN6CC[C@]43[C@@H]65)C2)C1 [VINBLASTINE] |  |  | 0.6 µM |

Continued by falling IC50 (L1210), values first:

| IC50 (L1210) | IC50 (HCT-116) | IC50 (HCT-116/VM46) | SMILES |
| --- | --- | --- | --- |
| 590 nM | 530 nM | 7 µM | CC[C@]1(N=C=S)C[C@@H]2CN(CCc3c([nH]c4ccccc34)[C@@](C(=O)OC)(c3cc4c(cc3OC)N(C)[C@H]3[C@@](O)(C(=O)OC)[C@H](OC(C)=O)[C@]5(CC)C=CCN6CC[C@]43[C@@H]65)C2)C1 |
| 570 nM | 520 nM | 6.6 µM | CC[C@]1(O)C[C@@H]2CN(CCc3c([nH]c4ccccc34)[C@@](C(=O)OC)(c3cc4c(cc3OC)N(C)[C@H]3[C@]5(O)C(=O)N(C)CCC5[C@@H]5CCCN6CC[C@]43C56)C2)C1 (some centres undefined) |
| 560 nM | 550 nM | 2.9 µM | CC[C@]1(SC#N)C[C@@H]2CN(CCc3c([nH]c4ccccc34)[C@@](C(=O)OC)(c3cc4c(cc3OC)N(C)[C@H]3[C@@](O)(C(=O)OC)[C@H](OC(C)=O)[C@]5(CC)C=CCN6CC[C@]43[C@@H]65)C2)C1 |
| 550 nM | 560 nM | 5.3 µM | CC[C@]1(O)C[C@@H]2CN(CCc3c([nH]c4ccccc34)[C@@](C(=O)OC)(c3cc4c(cc3OC)N(C)[C@@H]3[C@]45CCN4CC=C[C@@](C)(C[C@]3(O)C(=O)OC)[C@H]45)C2)C1 |
| 8.1 nM | 6.1 nM |  | CC[C@]1(O)C[C@@H]2CN(CCc3c([nH]c4ccccc34)[C@@](C(=O)OC)(c3cc4c(cc3OC)N(C)[C@H]3[C@@](O)(C(=O)OC)[C@H](C(=O)OC)[C@]5(CC)C=CCN6CC[C@]43[C@@H]65)C2)C1 |
